Assays:
Format in all cases: cell-based
[1] = molecular target: T1, Human GPR120 short form (Homo sapiens, UniProt Q5NUL3); assay: Human GPR120 calcium flux assay, Procedure Calcium A (2500 cells/well)
T1 construct: expressed in transfected cells
T1 sequence (Q5NUL3 1-361): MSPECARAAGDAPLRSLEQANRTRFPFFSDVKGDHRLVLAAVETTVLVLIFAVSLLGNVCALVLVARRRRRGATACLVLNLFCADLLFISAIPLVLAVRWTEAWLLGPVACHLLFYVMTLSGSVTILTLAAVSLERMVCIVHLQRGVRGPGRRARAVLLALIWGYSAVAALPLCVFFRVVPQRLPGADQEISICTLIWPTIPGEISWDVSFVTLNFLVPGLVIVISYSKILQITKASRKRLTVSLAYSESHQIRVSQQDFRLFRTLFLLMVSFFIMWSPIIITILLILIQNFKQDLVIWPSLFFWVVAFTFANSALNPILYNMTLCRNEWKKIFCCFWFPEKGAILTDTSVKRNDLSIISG
Summary of the method: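 HEK293 cells stably expressing human GPR120 short isoform (NM_001195755.1), 2500 cells/well, serum-starved 1 h at 37 °C and loaded with Fluo-4 NW plus probenecid. FLIPR fluorescence read for 300 s after compound addition; response = Fmax−Fmin. EC50 from four-parameter concentration–response fit.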

[2] = molecular target: T1, Human GPR120 short form; assay: Human GPR120 calcium flux assay, Procedure Calcium B (4200 cells/well)
Summary of the method: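 Agonist EC50 came from a four-parameter fit of RFU (Fmax−Fmin) read over 300 s on FLIPR. Cells were HEK293 stably transfected with human GPR120 (NM_001195755.1) at 4200 per well, serum-starved 1 h and loaded with Fluo-4 NW dye with probenecid before ligand addition.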

[3] = molecular target: T2, human GPR40 (Homo sapiens, UniProt O14842); assay: GPR40 calcium flux assay, human GPR40; conditions: HEK293 cells stably expressing GPR40; table does not say human or rat
T2 construct: expressed in transfected cells
Summary of the method: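 Cells preincubated 1 h at 37° C. in HBSS, 20 mM HEPES, 0.1% BSA, then Fluo 8 calcium dye 30 min at 37° C. and 15 min at room temperature.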

T2 sequence (O14842 whole entry): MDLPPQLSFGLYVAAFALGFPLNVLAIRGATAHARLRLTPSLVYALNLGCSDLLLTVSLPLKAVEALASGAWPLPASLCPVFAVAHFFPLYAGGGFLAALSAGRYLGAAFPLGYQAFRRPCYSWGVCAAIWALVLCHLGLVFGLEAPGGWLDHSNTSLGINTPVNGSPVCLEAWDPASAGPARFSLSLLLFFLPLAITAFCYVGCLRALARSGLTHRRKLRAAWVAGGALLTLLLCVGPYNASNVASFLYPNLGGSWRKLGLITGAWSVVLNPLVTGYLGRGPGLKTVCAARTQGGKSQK

EC50 [1] [nM] | EC50 [2] [nM] | EC50 [3] [nM] | SMILES
294 | 44 | > 5000 | Cc1c(CCC(=O)O)ccc(OCC2=C(c3ccc(F)cc3)CCC2)c1C [Compound 4, 3-[4-[[2-(4-fluorophenyl)cyclopenten-1-yl]methoxy]-2,3-dimethyl-phenyl]Propanoic Acid]
128 | 24 | > 10000 | O=C(O)CCc1ccc(OCC2=C(c3ccc(Cl)cc3)CCC2)c(F)c1 [Compound 149, 3-[4-[[2-(4-chlorophenyl)cyclopenten-1-yl]methoxy]-3-fluoro-phenyl]Propanoic Acid]
206 | 70 | > 5000 | Cc1c(CCC(=O)O)ccc(OCC2=C(c3ccc(Cl)cc3)CCC2)c1C [Compound 15, 3-(4-((2-(4-chlorophenyl)cyclopent-1-en-1-yl)methoxy)-2,3-dimethylphenyl)Propanoic Acid]
453 | 247 | > 5000 | O=C(O)CCc1c(F)c(F)c(OCC2=C(c3ccc(Cl)cc3)CCC2)c(F)c1F [Compound 122, 3-[4-[[2-(4-chlorophenyl)cyclopenten-1-yl]methoxy]-2,3,5,6-tetrafluoro-phenyl]Propanoic Acid]
